# Data published in patent US11892401B2, “Boronic acid appended naphthyl-pyridinium fluorescent saccharide sensors for early detection of gastrointestinal diseases” (The Board of Trustees of the Leland Stanford Junior …, priority 2018, dated 2024).
# Like-named read-outs stand apart in the source and are kept apart here.
# Tests used:
# [1] = Stern-Volmer quenching of HPTS anionic reporter dye; assay type: binding; conditions: 4 μM HPTS, 0.1 M sodium phosphate buffer pH 7.4, sphere of action quenching model
# Procedure: (§1) Stern-Volmer quenching of HPTS and TSPP anionic reporter dyes: Stock solutions of exemplary boronic acid compounds (1, 3, and 4) were initially prepared in DMS (1 mg/mL) and then diluted in 0.1 M sodium phosphate buffer pH 7.4 to obtain the desired initial 2-fold concentration. Fluorescence measurements were conducted in a 96-well plate (Corning #3694) and to each well were added 20 μL of each exemplary compound and 8 μM of HPTS or TSPP in triplicate. Initial fluorescence wells contained 20 μL of each reporter dye and 20 μL of buffer. Blank wells received 40 μL of buffer only. Measurements were performed using a Tecan infinite M1000 instrument a plate reader (gain 100, flashes 30, z-position 1.8 cm) Plates were shaken for 30 seconds (2 mm orbital amplitude) prior to reading. After blank subtraction, fluorescence intensity relative to initial total fluorescence of HPTS or TSPP (Fo/F) for each sample was calculated.
# (§2) Given the cationic character of the subject receptor compounds, their ability to form a non-fluorescent ground state complex with anionic reporter dyes, such as HPTS and TSPP was investigated. The fluorescence quenching of each dye can be quantitatively monitored by Stern-Volmer analysis (Albrecht, C., Anal. Bioanal. Chem. 2008, 390 (5), 1223-1224). Two types of quenching can exist, static quenching, due to complex formation, and dynamic quenching, due to collisional encounters between the dye and quencher. Based on previous work with bis-boronic acid appended viologens (BBV) and their ability to quench HPTS (Cordes, D. B.; Gamsey, S.; Sharrett, Z.; Miller, A.; Thoniyot, P.; Wessling, R. A.; Singaram, B., Langmuir 2005, 21 (14), 6540-6547), a similar quenching mechanism was envisaged for each anionic reporter dye, through static quenching. The effects of adjusting the quencher to dye ratio for HPTS and TSPP with each of compounds 1, 3, and 4 while monitoring the decrease of fluorescence for each dye are shown in FIG. 5, panel A (HPTS) and FIG. 5, panel B (TSPP).
# (§3) With each of compounds 1, 3 and 4 only having two cationic groups, it was anticipated anticipated that higher (>400 μM) amounts of each quencher would be required to achieve at least 80% of quenched fluorescence. […] Using the fluorescence data, the quenching efficiency can be determined using the available Stern-Volmer fitting models. The best fit to the Stern-Volmer plots for the exemplary compounds was obtained using the sphere of action quenching model (Eq. 2) (Frank, J. M.; Vavilov, S. I., Z. Phys. 1931, 69, 100-10).
# (§4) [formula] Where V is the dynamic quenching constant, Ks is the static quenching constant, [Q] is the concentration of the quencher, and […] is derived from the Poisson distribution. There was higher contribution from the static quenching given the higher static quenching constants compared to the dynamic constants (Table 1).
# [2] = Fluorescence emission of receptor compounds with increasing lactulose; conditions: phosphate buffer pH 7.4; for emission maxima: receptor 500 μM; for fluorescence intensity change on initial introduction of lactulose: lactulose 0.5 mM
# Procedure: Fluorescence Measurements of exemplary boronic acid receptor compounds: Stock solutions of each boronic acid receptor compound (1-4) were initially prepared in DMS (1 mg/mL) and then diluted to desired initial 1 mM concentration before adding to the wells. Each lactulose concentration points were prepared in 0.1 M sodium phosphate buffer as 2-fold of the desired final concentration in each well. Each well received 20 μL of each receptor compound and sugar concentration (each data point recorded in triplicates) and the fluorescence measurements were conducted in a 96-well plate (Corning #3694) using a Tecan infinite M1000 instrument a plate reader (gain 100, flashes 30, z-position 1.8 cm) Plates were shaken for 30 seconds (2 mm orbital amplitude) prior to reading.
# With reference to FIG. 4, panels A to D, the effect of lactulose on the fluorescent properties of each receptor compound (1-4) was examined in phosphate buffer pH 7.4. Receptor compounds (1) and (2) observed similar emission profiles with emission maxima at 504 and 490 nm, meanwhile the emission maxima for (3) and (4) was 50 nm less which peaked at 440 nm. […] These types of fluorescent changes have been previously observed by Norrild where a pyridinium moiety is directly conjugated to an anthracene core (Eggert, H.; Frederiksen, J.; Morin, C.; Norrild, J. C., Journal of Organic Chemistry 1999, 64 (11), 3846-3852). Without being bound to any particular theory, it was hypothesized that the pyridinium unit in the subject receptor compounds may act as an electron sink for the singlet electron diminishing the fluorescence intensity. Upon boronic acid-sugar recognition and subsequently conversion of the hybridization of the boron atom from sp^2 to anionic sp^3 generating a zwitterion induces an internal charge transfer (ICT)-like mechanism increasing the fluorescence intensity.
# [3] = Fluorescence recovery of HPTS-receptor probes with 20 sugars; conditions: 4 μM HPTS, optimal Q:D ratio, pH 7.4, 20 sugars
# Procedure: Fluorescence recovery of each anionic reporter dyes: Fluorescence recovery measurements for sugar binding studies were conducted by preparing 96-well plates with the addition of 20 μL of the boronic acid receptor-fluorophore (HPTS or TSPP) probe solution as 2-fold concentrate (for example, 160 μM for (1) & 8 μM HPTS or 800 μM for (1) & 8 μM for TSPP) in 0.1 M sodium phosphate buffer pH 7.4. At the time of running the assay, each well received 20 μL of sample in triplicate. Blank wells were given 40 μL buffer with neither HPTS nor boronic acid receptor compound. Baseline fluorescence wells contained 20 μL of buffer and 20 μL of probe solution. Fluorescence recovery of HPTS was measured on the plate reader. After blank subtraction, fluorescence intensity relative to initial quenched HPTS (F/Fo) for each sample was calculated. Under these conditions, Fo is a non-zero value after background subtraction with about 20% of maximum fluorescence intensity. […]
# Each exemplary boronic acid appended naphthyl-pyridinium quencher-dye combination provided unique fluorescent recovery characteristics across all 20 sugars and sugar derivatives analyzed. […]
# [4] = Stern-Volmer quenching of TSPP anionic reporter dye; assay type: binding; conditions: 4 μM TSPP, 0.1 M sodium phosphate buffer pH 7.4, sphere of action quenching model
# Procedure: as §1, §2, §3, §4
# [5] = Absorption measurements with increasing lactulose; assay type: physicochemical; conditions: 0.1 M sodium phosphate buffer pH 7.4; 100 μM (1, 2), 50 μM (3, 4)
# Procedure: Absorption measurements of exemplary boronic acid receptor compounds: All absorption measurements were carried out using an Agilent Technologies Cary 60 Vis instrument in a quartz cuvette (1 cm pathlength). Stock solutions (1 mg/mL) of each compound was initially prepared in DMSO and then diluted to the desired concentration in 0.1 M sodium phosphate buffer pH 7.4 which gave minimal DMSO amount of at least 15%. Concentrations for each boronic acid receptor in cuvette are as follows; (1)=100 μM, (2)=100 μM, (3)=50 μM, and (4)=50 µM. Measurements were done in situ by taking the absorbance of each receptor compound in phosphate buffer pH 7.4, then aliquots of buffered 1 M lactulose (0.5-7 μL) was added, shaken for 30 seconds, and the new absorbance was recorded. With reference to FIG. 3, panels A to D, change of absorbance for each receptor compound was monitored as a function of increasing lactulose. […] Each compound provided absorbance maxima between 300-350 nm and with isosbestic points between 330-350 nm for all four receptors. Additionally, the compounds provided molar extinction coefficients of 1.17×10^4 (100 μM), 1.10×10^4 (100 μM), 2.77×10^4 (50 μM), and 5.01×10^4 (50 μM) M^−1 cm^−1 for 1-4 respectively. Without being bound to any particular theory, these absorption changes upon sugar binding at physiological pH for compounds 1-4 is indicative of a possible charge transfer process.
# [6] = pH profile / pKa by fluorescence spectroscopy; assay type: physicochemical; conditions: receptor 500 μM (2) or 250 μM (3, 4), fluorescence titration pH 3-10
# Procedure: Titration curves with pH were determined using the following buffer solutions, pH 3-4 acetate buffer; pH 5-8.5 phosphate buffer; and pH 9-10 carbonate buffer. Fluorescence intensity was monitored in the absence or presence of 30 mM lactulose for exemplary receptor compounds, e.g., 2, 500 μM; 3, 250 μM; and (4, 205 µM in the indicated buffer conditions. Stock solutions of each boronic acid receptor compound (2, 3, and 4) were initially prepared in DMS (1 mg/mL) and then diluted in appropriate buffer conditions to obtain the desired initial 2-fold concentration. Fluorescence measurements were conducted in a 96-well plate (Corning #3694) and to each well 30 μL of each receptor compound and buffer media with or without lactulose were added in triplicate. Blank wells received 60 μL of buffer only. Measurements were performed using a Tecan Infinite M1000 instrument, a plate reader (gain 100, flashes 30, z-position 1.8 cm) Plates were shaken for 30 seconds (2 mm orbital amplitude) prior to reading. After blank subtraction, fluorescence intensity relative to initial total fluorescence (at pH 3).
# Each pH-profile was fitted with equation S1, where y=normalized intensity, ymax=maximum normalized intensity, ymin=minimum normalized intensity, x=pH value, k=acid dissociation constant and pka values were obtained from this constant (pka=−log k).
# Titration curves fitted to equation S1.
# [7] = 30 mM lactulose, read-out: pka-with 30 mM lactulose
# [8] = aqueous buffer solutions in a 96-well plate, no lactulose, read-out: pKa-absence of lactulose
compound,measurement,setting,value
OB(O)c1cc(C[n+]2ccc(-c3ccc4ccccc4c3)cc2)cc(C[n+]2ccc(-c3ccc4ccccc4c3)cc2)c1 [Compound 1],HPTS Ks (static quenching constant),[1],1.01 ± 0.5 × 10^5 M^−1
same,HPTS V (dynamic quenching constant),[1],63 ± 15 M⁻¹
same,emission maxima,[2],504 nm
same,"change in fluorescence recovery, HPTS combination",[3],≥ 1.5 fold
same,TSPP Ks (static quenching constant),[4],5.24 ± 0.3 × 10^4 M^−1
same,TSPP V (dynamic quenching constant),[4],112 ± 46 M⁻¹
same,molar extinction coefficient,[5],11700 M⁻¹ cm⁻¹
"OB(O)c1ccccc1C[n+]1ccc(-c2ccc3ccccc3c2)cc1.[Br-] [Compound 2, 1-(2-boronobenzyl)-4-(naphthalen-2-yl) pyridinium bromide]",pKa,[6]; [7],5.5 ± 0.06
same,pKa,[6]; [8],7.7 ± 0.08
same,emission maxima,[2],490 nm
same,molar extinction coefficient,[5],11000 M⁻¹ cm⁻¹
OB(O)c1ccccc1C[n+]1ccc(-c2ccc3cc(-c4cc[n+](Cc5ccccc5B(O)O)cc4)ccc3c2)cc1 [Compound 3],HPTS Ks (static quenching constant),[1],9.29 ± 0.4 × 10^4 M^−1
same,HPTS V (dynamic quenching constant),[1],109 ± 18 M⁻¹
same,pKa,[6]; [7],5.8 ± 0.1
same,pKa,[6]; [8],7.8 ± 0.03
same,fluorescence intensity change on initial introduction of lactulose,[2],drastic intensity change
same,emission maxima,[2],440 nm
same,TSPP Ks (static quenching constant),[4],5.01 ± 0.7 × 10^4 M^−1
same,TSPP V (dynamic quenching constant),[4],68 ± 13 M⁻¹
same,molar extinction coefficient,[5],27700 M⁻¹ cm⁻¹
OB(O)c1ccccc1C[n+]1ccc(-c2ccc3ccc(-c4cc[n+](Cc5ccccc5B(O)O)cc4)cc3c2)cc1 [Compound 4],HPTS Ks (static quenching constant),[1],1.00 ± 0.9 × 10^5 M^−1
same,HPTS V (dynamic quenching constant),[1],100 ± 14 M⁻¹
same,pKa,[6]; [7],5.7 ± 0.05
same,pKa,[6]; [8],8.2 ± 0.02
same,fluorescence intensity change on initial introduction of lactulose,[2],drastic intensity change
same,emission maxima,[2],440 nm
same,TSPP Ks (static quenching constant),[4],1.45 ± 0.1 × 10^4 M^−1
same,TSPP V (dynamic quenching constant),[4],80 ± 10 M⁻¹
same,molar extinction coefficient,[5],50100 M⁻¹ cm⁻¹
